Data as given in ChEMBL document CHEMBL1122767, “Synthesis, resolution, absolute stereochemistry, and enantioselectivity of 3',4'-dihydroxynomifensine” (J Med Chem, 1984).

Experiments:
[1] = Concentration that produces 50 % displacement of specific [3H]clonidine binding to Alpha adrenergic receptor in rat brain cortical membrane preparations.; type: cell membranes
D(2) dopamine receptor = D(2) dopamine receptor (Rattus norvegicus, UniProt P61169); assay: Concentration that produces 50 % displacement of specific [3H]spiroperidol binding to rat caudate membrane preparations.
D(2) dopamine receptor, sequence (P61169 whole entry): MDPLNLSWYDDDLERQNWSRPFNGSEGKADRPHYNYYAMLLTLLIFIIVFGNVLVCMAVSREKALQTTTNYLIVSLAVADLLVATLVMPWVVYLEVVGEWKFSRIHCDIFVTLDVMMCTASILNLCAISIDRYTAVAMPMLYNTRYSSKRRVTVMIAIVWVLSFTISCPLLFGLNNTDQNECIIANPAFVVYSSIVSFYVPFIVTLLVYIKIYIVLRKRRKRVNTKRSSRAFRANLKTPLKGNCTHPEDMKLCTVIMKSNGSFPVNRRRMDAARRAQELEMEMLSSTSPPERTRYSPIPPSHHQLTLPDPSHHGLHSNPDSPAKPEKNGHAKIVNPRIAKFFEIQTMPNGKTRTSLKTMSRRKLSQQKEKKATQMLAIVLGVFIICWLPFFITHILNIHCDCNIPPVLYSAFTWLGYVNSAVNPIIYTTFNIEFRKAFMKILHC

[2] = biological target: T1, cyclic AMP phosphoprotein (Rattus norvegicus, UniProt Q712U5); assay: Effective concentration that gives maximal stimulation of cyclic AMP production over the concentration range tested; b=Inactive; type: functional
T1 sequence (Q712U5 whole entry): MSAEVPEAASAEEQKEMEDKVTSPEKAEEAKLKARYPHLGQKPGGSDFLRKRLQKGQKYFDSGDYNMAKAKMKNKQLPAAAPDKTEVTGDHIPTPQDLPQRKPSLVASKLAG

SMILES: CN1Cc2c(N)cccc2C(c2ccc(O)c(O)c2)C1 (stereo not drawn)
- IC50 [1]: 1.39 µM
- IC50 (D(2) dopamine receptor): 92 µM

SMILES: CN1Cc2c(N)cccc2[C@H](c2ccc(O)c(O)c2)C1
- IC50 [1]: 0.6 µM
- IC50 (D(2) dopamine receptor): 85.8 µM

SMILES: CN1Cc2c(N)cccc2[C@@H](c2ccc(O)c(O)c2)C1
- IC50 [1]: 27.7 µM
- IC50 (D(2) dopamine receptor): 99.1 µM
- EC50 [2]: Not Active

SMILES: NCCc1ccc(O)c(O)c1 [DOPAMINE]
- IC50 [1]: 0.061 µM
